Holding throughout (format): cell-based
Holding throughout (conditions): fluorescent calcium assay

In one experiment the target is TRPML1 (Homo sapiens, UniProt Q9GZU1). As to the kind of experiment: Fluorescent TRPML1 assay (Fluo4-AM calcium fluorescence in doxycycline-induced HEK-293 Trex cells). An outline of the steps:
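HEK-293 Trex cells stably carrying human TRPML1 (surface-trafficking mutant) were induced overnight with 0.5 ug/mL doxycycline, loaded with 1 micromolar Fluo4-AM, and suspended in Ringer's with 10 mM calcium. Compounds at 20 micromolar to 6 nanomolar final, half-log steps, triplicate; fluorescence 480/540 nm gave percent activity versus controls and EC50 by non-linear regression.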

Another experiment has as its target T1, TRPML2 (Homo sapiens, UniProt Q8IZK6).
T1 construct: expressed in transfected cells
T1 sequence (Q8IZK6 1-566): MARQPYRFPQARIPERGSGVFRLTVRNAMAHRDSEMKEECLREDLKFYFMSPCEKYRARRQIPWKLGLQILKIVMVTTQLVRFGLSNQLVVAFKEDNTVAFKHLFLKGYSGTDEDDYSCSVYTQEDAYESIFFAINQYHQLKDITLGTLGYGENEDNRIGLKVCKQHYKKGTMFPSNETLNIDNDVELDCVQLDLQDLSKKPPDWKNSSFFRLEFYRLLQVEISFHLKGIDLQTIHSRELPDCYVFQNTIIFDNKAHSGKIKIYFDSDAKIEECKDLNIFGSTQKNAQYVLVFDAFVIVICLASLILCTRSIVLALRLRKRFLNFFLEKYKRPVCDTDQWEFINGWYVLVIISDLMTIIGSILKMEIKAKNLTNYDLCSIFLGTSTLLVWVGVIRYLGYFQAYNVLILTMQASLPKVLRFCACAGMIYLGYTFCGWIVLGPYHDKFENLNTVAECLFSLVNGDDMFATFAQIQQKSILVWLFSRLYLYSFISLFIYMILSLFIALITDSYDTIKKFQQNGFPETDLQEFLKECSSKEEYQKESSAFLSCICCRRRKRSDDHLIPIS
The experiment is described as follows: Fluorescent TRPML2 assay (performed as for TRPML1, substituting the TRPML2 subtype). A digest of the protocol:
(§1)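 Compound series (final 6 nM-20 μM, half-log, triplicate) were added to Fluo4-AM-loaded HEK-293 Trex cells in 10 mM calcium Ringer's, expressing the human TRPML subtype after doxycycline 0.5 ug/mL induction. Percent activity versus positive/negative controls from 480/540 nm fluorescence; EC50 by non-linear regression.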

Another experiment concerns the target T2, TRPML3 (Homo sapiens, UniProt Q8TDD5).
T2 construct: expressed in transfected cells
T2 sequence (Q8TDD5 1-553): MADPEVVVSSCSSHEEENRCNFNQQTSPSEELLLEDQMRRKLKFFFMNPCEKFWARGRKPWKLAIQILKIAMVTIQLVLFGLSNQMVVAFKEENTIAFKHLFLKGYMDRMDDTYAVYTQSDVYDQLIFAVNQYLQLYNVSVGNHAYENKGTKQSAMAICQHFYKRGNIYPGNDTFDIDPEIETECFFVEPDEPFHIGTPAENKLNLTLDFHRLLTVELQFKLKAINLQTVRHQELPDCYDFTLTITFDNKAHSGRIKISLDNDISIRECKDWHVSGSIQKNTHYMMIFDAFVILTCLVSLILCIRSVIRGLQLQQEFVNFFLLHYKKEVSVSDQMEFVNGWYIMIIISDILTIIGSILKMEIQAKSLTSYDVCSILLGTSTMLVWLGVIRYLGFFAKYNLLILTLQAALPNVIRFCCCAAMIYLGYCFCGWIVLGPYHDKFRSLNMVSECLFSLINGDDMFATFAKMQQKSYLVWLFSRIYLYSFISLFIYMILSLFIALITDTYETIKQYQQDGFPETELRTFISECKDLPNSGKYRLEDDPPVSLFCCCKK
As to the kind of experiment: Fluorescent TRPML3 assay (performed as for TRPML1, substituting the TRPML3 subtype). A digest of the protocol:
as §1

The structures appear in SMILES notation.

The text below walks through data of patent publication US20250136606A1, “MODULATORS OF TRPML, THEIR COMPOSITIONS AND METHODS OF USE” (Caraway Therapeutics, Inc., priority 2021, published 2025).

Chain of TRPML1 (Q9GZU1 whole entry L15A/L16A/L577A/L578A, form open): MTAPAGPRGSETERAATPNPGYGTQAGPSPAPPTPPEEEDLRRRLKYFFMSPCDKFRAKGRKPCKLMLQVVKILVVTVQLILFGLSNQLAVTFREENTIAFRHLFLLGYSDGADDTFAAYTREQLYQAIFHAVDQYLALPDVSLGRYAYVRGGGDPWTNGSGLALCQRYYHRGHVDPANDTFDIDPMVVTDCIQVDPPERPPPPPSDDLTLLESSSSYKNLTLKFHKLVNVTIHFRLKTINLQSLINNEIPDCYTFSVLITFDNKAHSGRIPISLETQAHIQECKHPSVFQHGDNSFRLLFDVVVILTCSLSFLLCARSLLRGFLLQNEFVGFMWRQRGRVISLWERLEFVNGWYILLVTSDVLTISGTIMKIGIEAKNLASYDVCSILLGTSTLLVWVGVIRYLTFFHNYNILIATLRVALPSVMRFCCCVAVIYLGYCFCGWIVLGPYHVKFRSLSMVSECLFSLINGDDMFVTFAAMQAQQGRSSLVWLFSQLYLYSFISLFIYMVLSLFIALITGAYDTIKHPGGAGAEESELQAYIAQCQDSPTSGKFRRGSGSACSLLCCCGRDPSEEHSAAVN

`C[C@H]1CN(C(=O)OC(C)(C)C)CCN1c1ncnc2c1c(-c1ccncc1)cn2-c1cc(C#N)ccn1` [Compound 354, tert-butyl (S)-4-(7-(4-cyanopyridin-2-yl)-5-(pyridin-4-yl)-7H-pyrrolo[2,3-d]pyrimidin-4-yl)-3-methylpiperazine-1-carboxylate]: the EC50 at TRPML1, on TRPML2 and on TRPML3 was under 100 nM throughout.
With `C[C@H]1CN(C(=O)OC(C)(C)C)CCN1c1ncnc2c1c(-c1ccncc1F)cn2-c1cc(C#N)ccn1` [Compound 355, tert-butyl (S)-4-(7-(4-cyanopyridin-2-yl)-5-(3-fluoropyridin-4-yl)-7H-pyrrolo[2,3-d]pyrimidin-4-yl)-3-methylpiperazine-1-carboxylate], the EC50 at TRPML1, on TRPML2 and at TRPML3 was under 100 nM each time.
With `C[C@@H]1CN(c2ncnc3c2c(N2CCCC2)cn3-c2cc(F)c(F)c(F)c2)CCN1C(=O)OC(C)(C)C` [Compound 362, tert-butyl (R)-2-methyl-4-(5-(pyrrolidin-1-yl)-7-(3,4,5-trifluorophenyl)-7H-pyrrolo[2,3-d]pyrimidin-4-yl)piperazine-1-carboxylate], the EC50 (commonly the concentration that produces a half-maximal response) on TRPML1 was under 100 nM; on TRPML2, 100 to 500 nM; at TRPML3, under 100 nM.
`C[C@@H]1CN(c2cn(-c3cccc(C#N)c3)c3ncnc(N4CCN(C(=O)OC(C)(C)C)C[C@@H]4C)c23)CCO1` [Compound 363, tert-butyl (S)-4-(7-(3-cyanophenyl)-5-((R)-2-methylmorpholino)-7H-pyrrolo[2,3-d]pyrimidin-4-yl)-3-methylpiperazine-1-carboxylate]: the figures for the EC50 on TRPML1, on TRPML2 and at TRPML3 were 100 to 500 nM, 500 to 2000 nM and under 100 nM, respectively.
In the case of `C[C@H]1CN(C(=O)OC(C)(C)C)CCN1c1ncnc2c1c(C1CC1)cn2C12CCC(CC1)CC2` [Compound 364, tert-butyl (S)-4-(7-(bicyclo[2.2.2]octan-1-yl)-5-cyclopropyl-7H-pyrrolo[2,3-d]pyrimidin-4-yl)-3-methylpiperazine-1-carboxylate], the EC50 was under 100 nM at TRPML1, 100 to 500 nM on TRPML2 and under 100 nM on TRPML3.
Turning to `C[C@H]1CN(C(=O)OC(C)(C)C)CCN1c1ncnc2c1c(C1CC1(F)F)cn2-c1cc(C#N)ccn1` (stereo partly drawn) [Compound 365, tert-butyl (3S)-4-(7-(4-cyanopyridin-2-yl)-5-(2,2-difluorocyclopropyl)-7H-pyrrolo[2,3-d]pyrimidin-4-yl)-3-methylpiperazine-1-carboxylate], the EC50 on TRPML1 was under 100 nM; on TRPML2 it was 100 to 500 nM; on TRPML3, under 100 nM.
`CCN(CC)c1cn(-c2cccc(Cl)c2)c2ncnc(N3CCN(C(=O)OC(C)(C)C)C[C@@H]3C)c12` [Compound 366, tert-butyl (S)-4-(7-(3-chlorophenyl)-5-(diethylamino)-7H-pyrrolo[2,3-d]pyrimidin-4-yl)-3-methylpiperazine-1-carboxylate]: the EC50 on TRPML1 was under 100 nM; at TRPML2, 100 to 500 nM; at TRPML3, under 100 nM.
With `C[C@@H]1CN(c2ncnc3c2c(-c2ccccn2)cn3-c2cc(C#N)ccn2)CCN1C(=O)OC(C)(C)C` [Compound 367, tert-butyl (R)-4-(7-(4-cyanopyridin-2-yl)-5-(pyridin-2-yl)-7H-pyrrolo[2,3-d]pyrimidin-4-yl)-2-methylpiperazine-1-carboxylate], the EC50 at TRPML1 was under 100 nM; at TRPML2, 100 to 500 nM; at TRPML3, under 100 nM.
For the molecule `C[C@H]1CN(C(=O)OCC(F)(F)F)CCN1c1ncnc2c1c(C1CC1)cn2-c1cc(C#N)ccn1` [Compound 368, 2,2,2-trifluoroethyl (S)-4-(7-(4-cyanopyridin-2-yl)-5-cyclopropyl-7H-pyrrolo[2,3-d]pyrimidin-4-yl)-3-methylpiperazine-1-carboxylate], the EC50 on TRPML1 is under 100 nM; on TRPML2 it was 500 to 2000 nM; at TRPML3, under 100 nM.
In the case of `C[C@@H]1COCCN1c1cn(-c2cccc(C#N)c2)c2ncnc(N3CCN(C(=O)OC(C)(C)C)C[C@@H]3C)c12` [Compound 369, tert-butyl (S)-4-(7-(3-cyanophenyl)-5-((R)-3-methylmorpholino)-7H-pyrrolo[2,3-d]pyrimidin-4-yl)-3-methylpiperazine-1-carboxylate], the EC50 lay within 100 to 500 nM at TRPML1, 500 to 2000 nM on TRPML2 and 100 to 500 nM on TRPML3.
Turning to `C[C@H]1CN(C(=O)OC(C)(C)C)CCN1c1ncnc2c1c(N1CCCC1)cn2-c1cc(C#N)ccn1` [Compound 370, tert-butyl (S)-4-(7-(4-cyanopyridin-2-yl)-5-(pyrrolidin-1-yl)-7H-pyrrolo[2,3-d]pyrimidin-4-yl)-3-methylpiperazine-1-carboxylate], the EC50 at TRPML1 is under 100 nM; at TRPML2 it was 100 to 500 nM; on TRPML3, under 100 nM.
As to `C[C@H]1CN(C(=O)OCC(F)(F)F)CCN1c1ncnc2c1c(-c1ccccc1)cn2-c1cc(C#N)ccn1` [Compound 371, 2,2,2-trifluoroethyl (S)-4-(7-(4-cyanopyridin-2-yl)-5-phenyl-7H-pyrrolo[2,3-d]pyrimidin-4-yl)-3-methylpiperazine-1-carboxylate], the EC50 at TRPML1 is under 100 nM; at TRPML2 it was 500 to 2000 nM; on TRPML3, under 100 nM.
Turning to `Cc1c(F)cc(-n2cc(N3CCCC3)c3c(N4CCN(C(=O)OC(C)(C)C)C[C@@H]4C)ncnc32)cc1F` [Compound 374, tert-butyl (S)-4-(7-(3,5-difluoro-4-methylphenyl)-5-(pyrrolidin-1-yl)-7H-pyrrolo[2,3-d]pyrimidin-4-yl)-3-methylpiperazine-1-carboxylate], the EC50 was 100 to 500 nM on TRPML1, 500 to 2000 nM on TRPML2 and under 100 nM at TRPML3.
In the same order, the values of `CCN(CC)c1cn(-c2cccc(Cl)c2)c2ncnc(N3CCN(C(=O)OC(C)(C)C)[C@H](C)C3)c12` [Compound 375, tert-butyl (R)-4-(7-(3-chlorophenyl)-5-(diethylamino)-7H-pyrrolo[2,3-d]pyrimidin-4-yl)-2-methylpiperazine-1-carboxylate] are under 100 nM, 100 to 500 nM and under 100 nM.
Taken in the same sequence, the figures for `C[C@H]1CN(C(=O)OC(C)(C)C)CCN1c1ncnc2c1c(C1CC1(F)F)cn2-c1cccc(C#N)c1` (stereo partly drawn) [Compound 376] were under 100 nM, 100 to 500 nM and under 100 nM.
In the same order, the values of `C[C@@H]1CN(c2ncnc3c2c(C2CC2)cn3-c2cc(C#N)ccn2)CCN1C(=O)OCC(F)(F)F` [Compound 377, 2,2,2-trifluoroethyl (R)-4-(7-(4-cyanopyridin-2-yl)-5-cyclopropyl-7H-pyrrolo[2,3-d]pyrimidin-4-yl)-2-methylpiperazine-1-carboxylate] are under 100 nM, 100 to 500 nM and under 100 nM.
Consider `C[C@@H]1CN(c2ncnc3c2c(-c2ccccc2F)cn3-c2cc(C#N)ccn2)CCN1C(=O)OCC(F)(F)F` [Compound 378, 2,2,2-trifluoroethyl (R)-4-(7-(4-cyanopyridin-2-yl)-5-(2-fluorophenyl)-7H-pyrrolo[2,3-d]pyrimidin-4-yl)-2-methylpiperazine-1-carboxylate], for which the EC50 on TRPML1, on TRPML2 and at TRPML3 was under 100 nM in each case.
For the molecule `C[C@H]1COCCN1c1cn(-c2cccc(C#N)c2)c2ncnc(N3CCN(C(=O)OC(C)(C)C)C[C@@H]3C)c12` [Compound 379, tert-butyl (S)-4-(7-(3-cyanophenyl)-5-((S)-3-methylmorpholino)-7H-pyrrolo[2,3-d]pyrimidin-4-yl)-3-methylpiperazine-1-carboxylate], the results for the EC50 on TRPML1, at TRPML2 and at TRPML3 were 500 to 2000 nM, over 2000 nM and 500 to 2000 nM, respectively.
